Measurements: ChEMBL document CHEMBL3507680, “University of Dundee, Gates Library screen for HepG2 cell viability”

Assay: Human HepG2 cell viability assay in 384 well format
Format: toxicity, cell-based
Design: dose 125 nL, time 70.5 hour; concentration not given beside the values
Conditions: HepG2 cells, read-out: Inhibition

With `CC(C)C[C@H](NC(=O)c1cc(-c2cccn2C)n[nH]1)C(N)=O` the cytotoxicity at 70.5 h was -0.791%.
Compound `COCCNc1nc2c(c(NCCc3cccs3)n1)CCNCC2` has a cytotoxicity at 70.5 h of -2.67%.
For `Fc1ccccc1CC1CCN(Cc2nccs2)CC1`, the cytotoxicity at 70.5 h was -3.29%.
`C[C@@H]1CN(C(=O)C2(Cn3cccn3)CC2)CC[C@@]1(O)C1CCOCC1` gave a cytotoxicity at 70.5 h of -0.0584%.
In the case of `CCc1cnc(N2CCCC(CCC(N)=O)C2)nc1` (stereo not drawn), the cytotoxicity at 70.5 h was 17.3%.
Work on `O[C@@H]1CN(c2noc(C3CC3)n2)CC[C@H]1c1ccc2ccccc2c1` yielded a cytotoxicity at 70.5 h of 17.6%.
Compound `CN1CCc2[nH]cnc2C12CCN(Cc1ccc3nsnc3c1)CC2` has a cytotoxicity at 70.5 h of 0.284%.
With `CNc1nc(C)c(C(=O)N2C[C@@H](C(=O)O)[C@H](C3CC3)C2)s1` the cytotoxicity at 70.5 h was -6.65%.
Work on `CN1CCC(C2CCN(Cc3cccc(-n4cccn4)c3)CC2)C1` (stereo not drawn) yielded a cytotoxicity at 70.5 h of 2.02%.
`CC(c1ccc(C(=O)NCCc2nc(N)cc(O)n2)o1)N1CCCCC1` (stereo not drawn) showed a cytotoxicity at 70.5 h of -3.9%.
Work on `CN(Cc1cc2n(n1)CCNC2)Cc1cc(-c2ccccn2)no1` yielded a cytotoxicity at 70.5 h of -5.4%.
Work on `O=C(Cc1ccc(F)cc1Cl)N1C[C@@H](CN2CCC(O)CC2)[C@@H](CO)C1` yielded a cytotoxicity at 70.5 h of -3.43%.
In the case of `COCc1nc(Cn2c(C)cc(C(F)(F)F)cc2=O)no1`, the cytotoxicity at 70.5 h was 23.9%.
For `Cc1nn(C)c(C)c1-c1ccnc(N(C)Cc2noc(C(C)C)n2)n1`, the cytotoxicity at 70.5 h was 7.17%.
`CCC(C)N(Cc1cccnc1)Cc1ccccc1Cn1cccn1` (stereo not drawn) showed a cytotoxicity at 70.5 h of -9.31%.
With `CC(C)Cc1cc(C(=O)NC(C)(CO)CO)n(C)n1` the cytotoxicity at 70.5 h was -16.8%.
For `Cc1nnc(CN(C)Cc2ccc(C(=O)Nc3sccc3C#N)cc2)o1`, the cytotoxicity at 70.5 h was 0.967%.
Work on `CC(=O)NCCNc1cc(C)nc2cc(C)nn12` yielded a cytotoxicity at 70.5 h of 0.136%.
`Cc1nc(CN2CC(Cc3ccccc3)CC2=O)no1` (stereo not drawn) gave a cytotoxicity at 70.5 h of -17.4%.
With `CCn1cnnc1C1CCN(C(=O)c2ccccc2F)CC1` the cytotoxicity at 70.5 h was -7.26%.
`CC(C)c1nccn1C1CCCN(C(=O)c2ccc3nncn3c2)C1` (stereo not drawn) gave a cytotoxicity at 70.5 h of 13%.
In the case of `CCn1cnnc1C1CCN(C(=O)c2cc(F)ccc2OC)CC1`, the cytotoxicity at 70.5 h was -10.6%.
`CCn1cnnc1C1CCN(C(=O)c2cc(C)n(CC)c2C)CC1` gave a cytotoxicity at 70.5 h of -5.03%.
Compound `Cc1nc(C)n(CC2CCCCN2Cc2nc3ccccc3o2)n1` (stereo not drawn) has a cytotoxicity at 70.5 h of 17.7%.
With `Cc1nc(C)n(CC2CN(CC(=O)NC3CCCC3)CCO2)n1` (stereo not drawn) the cytotoxicity at 70.5 h was -7.31%.
In the case of `Cc1cnn(C2CN(Cc3nc(-c4ccsc4)no3)C2)c1`, the cytotoxicity at 70.5 h was -8.74%.
With `CCc1nc(CNc2ccc(C(=O)N3CCSCC3)cc2C)no1` the cytotoxicity at 70.5 h was -6.1%.
Work on `CC(C)Cn1nnnc1SC(C(=O)NCc1cccnc1)C(C)C` (stereo not drawn) yielded a cytotoxicity at 70.5 h of -4.78%.
`Cc1cc(CN(C)C2CCCN(c3cccnn3)C2)no1` (stereo not drawn) showed a cytotoxicity at 70.5 h of -9.99%.
`Cc1nc(C)n(CC2CCCCN2Cc2cnc(C)s2)n1` (stereo not drawn) showed a cytotoxicity at 70.5 h of -7.75%.
In the case of `Cc1cc(C(=O)N2CCCC(C)C2)ccc1NCc1nc(C(C)C)no1` (stereo not drawn), the cytotoxicity at 70.5 h was -9.64%.
`CCN(C(C)=O)c1nc(CN2CCCCC2Cn2cncn2)cs1` (stereo not drawn) gave a cytotoxicity at 70.5 h of -3.03%.
Compound `Cc1cc(C)n(CC2CCCN2Cc2ncc(C(C)(C)C)o2)n1` (stereo not drawn) has a cytotoxicity at 70.5 h of -5.22%.
`CCn1cc(CN2CCCN(C(=O)CCSC)CC2)cn1` showed a cytotoxicity at 70.5 h of -1.89%.
`CC(C)Oc1ccc(Cl)c(C(=O)N2CCN(CCO)CC2)n1` gave a cytotoxicity at 70.5 h of -12.1%.
In the case of `COc1c(CNCC(O)c2ccccc2F)c(C(C)C)nn1C` (stereo not drawn), the cytotoxicity at 70.5 h was 21.4%.
Work on `CCn1cc(CN2CCCN(C(=O)CCc3cccs3)CC2)cn1` yielded a cytotoxicity at 70.5 h of -12.3%.
`CCn1cc(CN2CCCN(C(=O)CCc3ccccc3)CC2)cn1` showed a cytotoxicity at 70.5 h of -12.3%.
`COCCN1CCN(Cc2ccc(OCc3nccn3C)cc2)CC1` showed a cytotoxicity at 70.5 h of -14.3%.
Work on `CC(=O)N1CCN(Cc2coc(-c3cccc(F)c3)n2)CC1` yielded a cytotoxicity at 70.5 h of -19.9%.
Compound `CCn1cc(CN2CCCN(C(=O)CCn3cc(C)cn3)CC2)cn1` has a cytotoxicity at 70.5 h of -12.3%.
`O=C(c1ccc2[nH]nnc2c1)N1CCC(Nc2cccnn2)CC1` showed a cytotoxicity at 70.5 h of 10.7%.
For `CC(C)Cc1cc(NC(=O)c2ccccc2)n(C)n1`, the cytotoxicity at 70.5 h was -15.4%.
`O=C(NCC1COC2(CCOCC2)O1)c1csc(-c2cccc(Cl)c2)n1` (stereo not drawn) gave a cytotoxicity at 70.5 h of -20.8%.
With `CCn1cc(CN2CCCN(C(=O)CCc3nccs3)CC2)cn1` the cytotoxicity at 70.5 h was -12.4%.
`COc1ccc(-c2nc(C(=O)NCC3CCOC3)cs2)cc1OC` (stereo not drawn) showed a cytotoxicity at 70.5 h of -7.66%.
`CCOc1ccc(-c2nc(C(=O)NCC3CCOC3)cs2)cc1` (stereo not drawn) showed a cytotoxicity at 70.5 h of -7.97%.
Compound `CCOc1ccc(Cl)c(C(=O)N2CCN(C(=O)OC)CC2)n1` has a cytotoxicity at 70.5 h of -14.3%.
`CCOc1ccc(Cl)c(C(=O)N2CCN(c3ncccn3)CC2)n1` gave a cytotoxicity at 70.5 h of -12.1%.
With `CC(=O)N1CCN(Cc2ccc(OCc3nccn3C)cc2)CC1` the cytotoxicity at 70.5 h was -8.75%.
With `COc1ccc(C(=O)Nc2cc(CC(C)C)nn2C)cc1` the cytotoxicity at 70.5 h was 7.52%.
For `COc1ccccc1C(=O)Nc1cc(CC(C)C)nn1C`, the cytotoxicity at 70.5 h was -3.94%.
In the case of `CC(C)Cc1cc(NC(=O)c2ccccn2)n(C)n1`, the cytotoxicity at 70.5 h was -10.2%.
For `CC(C)Cc1cc(NC(=O)c2ccncc2)n(C)n1`, the cytotoxicity at 70.5 h was -11.6%.
Compound `Cc1nc2cc(O)nn2c(C)c1CCC(=O)NCc1cc(Br)cs1` has a cytotoxicity at 70.5 h of -13.2%.
Compound `O=C(c1ccc(-c2cnco2)cc1)N1CCC(Nc2cccnn2)CC1` has a cytotoxicity at 70.5 h of -4.21%.
Compound `O=C(c1ccc2cc[nH]c2c1)N1CCC(Nc2cccnn2)CC1` has a cytotoxicity at 70.5 h of -4.46%.
`CNC(=O)c1ccc(C(=O)N2CCCC(n3ccnc3)C2)cn1` (stereo not drawn) showed a cytotoxicity at 70.5 h of -15.9%.
Compound `Cc1cnn(C2CCCN(C(=O)c3ccc(-n4cccn4)nc3)C2)c1` (stereo not drawn) has a cytotoxicity at 70.5 h of -11.3%.
For `Cc1oc(C(=O)O)cc1S(=O)(=O)Nc1ccc(Cl)cc1F`, the cytotoxicity at 70.5 h was -0.71%.
In the case of `Cc1oc(C(=O)O)cc1S(=O)(=O)Nc1ccc(Br)cc1Cl`, the cytotoxicity at 70.5 h was -16.9%.
Compound `Cc1oc(C(=O)O)cc1S(=O)(=O)Nc1cc(Br)ccc1F` has a cytotoxicity at 70.5 h of -7.4%.
`COC(=O)c1cccn1C1CCN(C(=O)c2c(C)noc2C)CC1` showed a cytotoxicity at 70.5 h of 3.97%.
`CC(C)N(C)CC(=O)N(C)C(c1cccc(F)c1)c1ccccn1` (stereo not drawn) gave a cytotoxicity at 70.5 h of 40.9%.
`COc1c(C)cnc(CN2CCC(N(C)C(=O)C(C)OC)CC2)c1C` (stereo not drawn) gave a cytotoxicity at 70.5 h of 7.6%.
For `CC(=O)N(C)C(c1cccc(F)c1)c1ccccn1` (stereo not drawn), the cytotoxicity at 70.5 h was 8.62%.
With `c1csc(N2CCCN(Cc3noc(C4CC4)n3)CC2)n1` the cytotoxicity at 70.5 h was -11.8%.
Work on `Cc1ccc(NC2CCN(C(=O)c3cnn(C(C)(C)C)c3)CC2)nn1` yielded a cytotoxicity at 70.5 h of -14.1%.
For `CCOCCCC(=O)N(C)C(c1cccc(F)c1)c1ccccn1` (stereo not drawn), the cytotoxicity at 70.5 h was -23.5%.
`COCCN1CCC(NCc2ccc(Cl)cc2)C1` (stereo not drawn) showed a cytotoxicity at 70.5 h of -11.1%.
`Cc1ccc(NC2CCN(C(=O)c3ccnc(N(C)C)c3)CC2)nn1` showed a cytotoxicity at 70.5 h of -22.6%.
`CN(C)S(=O)(=O)N(C)C(c1cccc(F)c1)c1ccccn1` (stereo not drawn) gave a cytotoxicity at 70.5 h of -19.9%.
Compound `Cc1nn(C)c(C)c1C1COCCN1C(=O)c1ccc(Cl)o1` (stereo not drawn) has a cytotoxicity at 70.5 h of 10.5%.
In the case of `Cc1ccc(NC2CCN(C(=O)c3ccncc3)CC2)nn1`, the cytotoxicity at 70.5 h was -12.4%.
Work on `CC(C)(C)c1nc(CN2CCCN(Cc3cccs3)CC2)no1` yielded a cytotoxicity at 70.5 h of -18.1%.
In the case of `CCc1noc(CN2CCN(c3nccs3)CC2)n1`, the cytotoxicity at 70.5 h was 10.7%.
Compound `COc1ncccc1NC(=O)N(Cc1ccccn1)C1CC1` has a cytotoxicity at 70.5 h of -17.7%.
With `CCOCc1ccc(CNc2cncc(-n3cccn3)n2)cc1` the cytotoxicity at 70.5 h was 8.54%.
With `COCc1ccc(CNc2cncc(-n3cccn3)n2)cc1` the cytotoxicity at 70.5 h was -9.14%.
`Cc1cc(C(=O)N2CCCC2)ccc1NCC(=O)N1CCCCC1C` (stereo not drawn) showed a cytotoxicity at 70.5 h of 7.01%.
Work on `NS(=O)(=O)Cc1ccc(CNc2cncc(-n3cccn3)n2)cc1` yielded a cytotoxicity at 70.5 h of -14%.
With `O=C(CNc1cc(F)ccc1OCC1CCCO1)N1CCOCC1` (stereo not drawn) the cytotoxicity at 70.5 h was -0.218%.
`Cc1cc(C(=O)N2CCCCC2C)ccc1NC(=O)N1CCOCC1` (stereo not drawn) showed a cytotoxicity at 70.5 h of -6.59%.
